Experimental data from patent publication US8389539B2, “Azacyclic derivatives” (Hoffman-La Roche Inc., priority 2009, dated 2013).
pIC50: −log10 of the molar value.

Target: T1, human HSL (Homo sapiens, UniProt Q05469)
T1 construct: overlapping PCR to generate a full length human HSL ORF with a 3′-His6 tag; His6 (C); made in house; host or cells: High 5 insect cells (baculovirus, pFast-BAC)
T1 sequence (Q05469 1-1076): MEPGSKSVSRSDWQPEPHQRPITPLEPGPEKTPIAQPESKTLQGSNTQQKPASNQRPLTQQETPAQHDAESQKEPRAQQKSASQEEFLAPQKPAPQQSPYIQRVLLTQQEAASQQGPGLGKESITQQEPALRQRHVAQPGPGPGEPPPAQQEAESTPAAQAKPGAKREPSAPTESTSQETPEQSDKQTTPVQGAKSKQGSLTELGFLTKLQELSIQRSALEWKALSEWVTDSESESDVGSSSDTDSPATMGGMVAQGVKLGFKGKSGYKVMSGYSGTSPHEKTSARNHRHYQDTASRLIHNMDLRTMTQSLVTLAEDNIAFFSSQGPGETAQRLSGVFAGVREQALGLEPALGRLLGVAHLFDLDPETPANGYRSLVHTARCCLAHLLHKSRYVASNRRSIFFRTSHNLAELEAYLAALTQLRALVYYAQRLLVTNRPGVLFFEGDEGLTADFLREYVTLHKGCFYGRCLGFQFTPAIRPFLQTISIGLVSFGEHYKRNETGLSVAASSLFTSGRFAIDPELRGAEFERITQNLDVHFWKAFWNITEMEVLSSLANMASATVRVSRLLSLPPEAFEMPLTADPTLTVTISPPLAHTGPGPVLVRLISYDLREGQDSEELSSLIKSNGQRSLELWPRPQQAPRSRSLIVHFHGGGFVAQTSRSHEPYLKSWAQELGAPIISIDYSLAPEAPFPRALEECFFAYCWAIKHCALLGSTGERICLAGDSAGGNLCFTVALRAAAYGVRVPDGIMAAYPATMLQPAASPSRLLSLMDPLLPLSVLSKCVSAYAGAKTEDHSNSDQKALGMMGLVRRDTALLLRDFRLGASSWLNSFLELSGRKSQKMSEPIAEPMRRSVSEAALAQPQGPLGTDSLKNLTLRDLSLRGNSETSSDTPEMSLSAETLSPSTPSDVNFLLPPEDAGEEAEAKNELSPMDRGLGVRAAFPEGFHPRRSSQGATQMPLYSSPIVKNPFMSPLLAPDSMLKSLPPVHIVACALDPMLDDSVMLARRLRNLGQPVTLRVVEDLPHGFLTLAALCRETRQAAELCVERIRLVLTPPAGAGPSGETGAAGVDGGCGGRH
Assay: Human Hormone-Sensitive Lipase (HSL) enzyme inhibition assay (colorimetric, DMPT substrate)
Format: biochemical
Details: human full length HSL-His6, 2,3-dimercapto-1-propanol tributyrate substrate, 37° C. 20 minutes, absorbance at 405 nm; read-out: HSL hum IC50
Description: 1) Cloning: cDNA was prepared from commercial human brain polyA+ RNA and used as a template in overlapping PCR to generate a full length human HSL ORF with a 3′-His6 tag. This full length insert was cloned into the pFast-BAC vector and the DNA-sequence of several single clones was verified. DNA from a correct full length clone with the 3′His6 tag was used to transform the E. coli strain DH10BAC. Resulting bacmid DNA was used to generate a titered baculovirus stock for protein generation.
Cells were thawed. […] was done at 3×30 sec., Lubrol PX was added to 0.2% final concentration followed by stirring for 15 min. at 4° C. and centrifugation at 25 k×g, 60 min., 4° C. […] Supernatant was removed, the resin washed in the centrifuge vessel using 5 volumes of Base Buffer containing 0.2% Lubrol PX. Centrifugation was done again, then the supernatant discarded. The resin was poured onto a 0.8 μm membrane in a disposable filter unit (Nalge 450-0080), and washed with 5 volumes of Base Buffer containing 0.2% Lubrol PX. It was then washed with 30 volumes of Base Buffer containing 60 mM imidazole pH 7.5 at 4° C. The protein was eluated with 5 volumes of 25 mM Tris-Cl, 300 mM NaCl, 200 mM imidazole, 10 mM 2-mercaptoethanol, pH 7.5 at 4° C. by tumbling resin with buffer end-over-end, 30 min., 4° C. The resin was captured on a 0.2 μm membrane disposable filter unit (Millipore SCGP U02 RE) and the eluate collected in the reservoir. The eluate was concentrated using a 30 k MWCO centrifugal filter device (Sartorius Vivascience Vivacell 100, VC1022), to 20 ml. It was then dialyzed overnight at 4° C., two times against 2 L of 10% glycerol, 25 mM Tris-Cl, 300 mM NaCl, 0.2 mM EDTA, 0.2 mM DTT, pH 7.5 at 4° C. The protein was filtered using a 0.22 μm disposable filter unit (Millipore SCGP00525). The protein concentration was calculated from absorbance at 280 nm, using 280=0.67 cm-1 mg-1. […] The protein was stored at −80° C.
Human Hormone-Sensitive Lipase (HSL) Enzyme Inhibition Assay:
HSL enzyme activity was measured by a colorimetric assay using 2,3-dimercapto-1-propanol tributyrate (Aldrich, St. Louis, Mo.) as a substrate. Typically, 1.5 mM 2,3-dimercapto-1-propanol tributyrate (DMPT) in 100 mM MOPS, pH 7.2, 0.2 mg/ml fatty acid-free BSA was prepared by sonication at 4° C. to homogenous suspension. Test compounds (2 mM stock in DMSO) were diluted 3 fold in series in DMSO. Compound solutions were diluted 24 fold in 1.5 mM DMPT containing solution and 18 ul per well was added to 384-well microplates (Corning Costar). Twelve microliters per well of human HSL (15 ug/ml) was added and the reaction mixture was incubated at 37° C. for 20 minutes. Six microliters of 12 mM dithio-bis-(2-nitrobenzoic acid) (DTNB) in DMSO plus 1.2% SDS and 0.6% Triton X-100 were added and the mixture was incubated at room temperature for 15 minutes. Product production was monitored by reading absorbance at 405 nm on an Envision Reader (PerkinElmer Life and Analytical Sciences, Shelton, Conn.).

pIC50 | Structure (SMILES)
6.62 | O=C1N(c2ccc(C3CC3)cc2)CCC12CCN(CCCc1ccccc1)CC2 [Example 1, 2-(4-Cyclopropyl-phenyl)-8-(3-phenyl-propyl)-2,8-diaza-spiro[4.5]decan-1-one]
6.44 | O=C1N(c2ccc(C3CC3)cc2)CCC12CCN(Cc1ccc(C(F)(F)F)cc1)CC2 [Example 3, 2-(4-Cyclopropyl-phenyl)-8-(4-trifluoromethyl-benzyl)-2,8-diaza-spiro[4.5]decan-1-one]
7.52 | CC(c1ccccc1)N1CCC2(CCN(c3ccc(C4CC4)cc3)C2=O)CC1 (stereo not drawn) [Example 4, 2-(4-Cyclopropyl-phenyl)-8-(1-phenyl-ethyl)-2,8-diaza-spiro[4.5]decan-1-one]
6.77 | CC(c1cccc(C(F)(F)F)c1)N1CCC2(CCN(c3ccc(C4CC4)cc3)C2=O)CC1 (stereo not drawn) [Example 5, 2-(4-Cyclopropyl-phenyl)-8-[1-(3-trifluoromethyl-phenyl)-ethyl]-2,8-diaza-spiro[4.5]decan-1-one]
6.01 | CC(c1ccccc1)N1CCC2(CCN(c3ccc(C4CC4)cc3Cl)C2=O)CC1 (stereo not drawn) [Example 6, 2-(2-Chloro-4-cyclopropyl-phenyl)-8-(1-phenyl-ethyl)-2,8-diaza-spiro[4.5]decan-1-one]
7.52 | CCC(c1ccccc1)N1CCC2(CCN(c3ccc(C4CC4)cc3)C2=O)CC1 (stereo not drawn) [Example 7, 2-(4-Cyclopropyl-phenyl)-8-(1-phenyl-propyl)-2,8-diaza-spiro[4.5]decan-1-one]
7.40 | O=C1N(c2ccc(OC(F)(F)F)cc2)CCC12CCN(Cc1ccccc1)CC2 [Example 8, 8-Benzyl-2-(4-trifluoromethoxy-phenyl)-2,8-diaza-spiro[4.5]decan-1-one]
6.21 | CCNC(=O)CN1CCC2(CC1)CCN(c1ccc(C3CC3)cc1)C2=O [Example 9, 2-[2-(4-Cyclopropyl-phenyl)-1-oxo-2,8-diaza-spiro[4.5]dec-8-yl]-N-ethyl-acetamide]
6.42 | CCN(CC)C(=O)CN1CCC2(CC1)CCN(c1ccc(C3CC3)cc1)C2=O [Example 10, 2-[2-(4-Cyclopropyl-phenyl)-1-oxo-2,8-diaza-spiro[4.5]dec-8-yl]-N,N-diethyl-acetamide]
7.05 | CCCCNC(=O)CN1CCC2(CC1)CCN(c1ccc(C3CC3)cc1)C2=O [Example 11, N-Butyl-2-[2-(4-cyclopropyl-phenyl)-1-oxo-2,8-diaza-spiro[4.5]dec-8-yl]-acetamide]
7.52 | O=C(CN1CCC2(CC1)CCN(c1ccc(C3CC3)cc1)C2=O)NCc1ccc(C(F)(F)F)cc1 [Example 12, 2-[2-(4-Cyclopropyl-phenyl)-1-oxo-2,8-diaza-spiro[4.5]dec-8-yl]-N-(4-trifluoromethyl-benzyl)-acetamide]
7.10 | O=C(CN1CCC2(CC1)CCN(c1ccc(C3CC3)cc1)C2=O)Nc1ccc(F)cc1 [Example 13, 2-[2-(4-Cyclopropyl-phenyl)-1-oxo-2,8-diaza-spiro[4.5]dec-8-yl]-N-(4-fluoro-phenyl)-acetamide]
6.66 | O=C(CN1CCC2(CC1)CCN(c1ccc(C3CC3)cc1)C2=O)N1CCCC1 [Example 14, 2-(4-Cyclopropyl-phenyl)-8-(2-oxo-2-pyrrolidin-1-yl-ethyl)-2,8-diaza-spiro[4.5]decan-1-one]
7.10 | CN(Cc1ccccc1)C(=O)CN1CCC2(CC1)CCN(c1ccc(C3CC3)cc1)C2=O [Example 15, N-Benzyl-2-[2-(4-cyclopropyl-phenyl)-1-oxo-2,8-diaza-spiro[4.5]dec-8-yl]-N-methyl-acetamide]
7.22 | CN(C(=O)CN1CCC2(CC1)CCN(c1ccc(C3CC3)cc1)C2=O)C1CCCCC1 [Example 16, N-Cyclohexyl-2-[2-(4-cyclopropyl-phenyl)-1-oxo-2,8-diaza-spiro[4.5]dec-8-yl]-N-methyl-acetamide]
6.15 | COCCCNC(=O)CN1CCC2(CC1)CCN(c1ccc(C3CC3)cc1)C2=O [Example 17, 2-[2-(4-Cyclopropyl-phenyl)-1-oxo-2,8-diaza-spiro[4.5]dec-8-yl]-N-(3-methoxy-propyl)-acetamide]
6.34 | CCCCNC(=O)CCN1CCC2(CC1)CCN(c1ccc(C3CC3)cc1)C2=O [Example 18, N-Butyl-3-[2-(4-cyclopropyl-phenyl)-1-oxo-2,8-diaza-spiro[4.5]dec-8-yl]-propionamide]
7.52 | O=C(CCN1CCC2(CC1)CCN(c1ccc(C3CC3)cc1)C2=O)NCc1ccc(C(F)(F)F)cc1 [Example 19, 3-[2-(4-Cyclopropyl-phenyl)-1-oxo-2,8-diaza-spiro[4.5]dec-8-yl]-N-(4-trifluoromethyl-benzyl)-propionamide]
7.22 | O=C(CCN1CCC2(CC1)CCN(c1ccc(C3CC3)cc1)C2=O)Nc1ccc(F)cc1 [Example 20, 3-[2-(4-Cyclopropyl-phenyl)-1-oxo-2,8-diaza-spiro[4.5]dec-8-yl]-N-(4-fluoro-phenyl)-propionamide]
7.05 | CN(Cc1ccccc1)C(=O)CCN1CCC2(CC1)CCN(c1ccc(C3CC3)cc1)C2=O [Example 21, N-Benzyl-3-[2-(4-cyclopropyl-phenyl)-1-oxo-2,8-diaza-spiro[4.5]dec-8-yl]-N-methyl-propionamide]
6.49 | CN(C(=O)CCN1CCC2(CC1)CCN(c1ccc(C3CC3)cc1)C2=O)C1CCCCC1 [Example 22, N-Cyclohexyl-3-[2-(4-cyclopropyl-phenyl)-1-oxo-2,8-diaza-spiro[4.5]dec-8-yl]-N-methyl-propionamide]
7.15 | O=C1N(c2ccc(C3CC3)cc2)CCC12CCN(CC(O)c1ccccc1)CC2 (stereo not drawn) [Example 23, 2-(4-Cyclopropyl-phenyl)-8-(2-hydroxy-2-phenyl-ethyl)-2,8-diaza-spiro[4.5]decan-1-one]
7.10 | O=C1N(c2ccc(C3CC3)cc2)CCC12CCN(CC(O)c1ccc(Cl)cc1)CC2 (stereo not drawn) [Example 24, 8-[2-(4-Chloro-phenyl)-2-hydroxy-ethyl]-2-(4-cyclopropyl-phenyl)-2,8-diaza-spiro[4.5]decan-1-one]

Structure (SMILES) | pIC50
O=C1N(c2ccc(C3CC3)cc2)CCC12CCN(CCc1ccccc1)CC2 [Example 2, 2-(4-Cyclopropyl-phenyl)-8-phenethyl-2,8-diaza-spiro[4.5]decan-1-one] | 7.15
